Measurements: patent US20070161691A1, “Modified-protein formation inhibitor” (TOKAI UNIVERSITY, priority 2003, published 2007)

Tests used:
[1] = Suppressing effect on the nitration of tyrosine with peroxynitrite; assay type: biochemical; conditions: in comparison with pyridoxamine as positive control; 0.1, 0.5, 2.5 and 5 mM
Experimental: According to the method of Pannala, A.S. et al. (Free Radic. Biol. Med., 24:594-606, 1998), the examination was carried out. Namely, tyrosine (final concentration: 100 μM), the test compound (final concentration: 0.1, 0.5, 2.5 and 5 mM) and peroxynitrite (Dojin Kagaku) (final concentration: 500 μM) were dissolved in 200 mM of phosphate buffer (pH7.4) (liquid volume 500 μL) and incubated at 37° C. for 15 minutes. After incubation, the nitrotyrosine formation was determined with HPLC in the following manner: after a predifined time, the reaction mixture (20 μL) was injected onto HPLC, separation was made with C18 column (4.6×250 mm, 5 μm: Waters) and the detection was effected using a ultraviolet detector (RF-10A: Shimazu Seisakusho) at a wavelength of 280 nm. In the mobile phase, the flow rate was 0.6 mL/min and the concentration of buffer B was varied from 5.0% to 30% in 30 minutes (buffer A: 0.10% trifluoroacetic acid; buffer B: 80% acetonitrile containing 0.08% trifluoroacetic acid). 4-Hydroxy-3-nitrobenzoic acid (100 μM) was used as the internal standard.

[2] = tested on: ischemia-reperfusion acute renal failure model; assay: Renal protective effect on ischemia-reperfusion acute renal failure model rat; assay type: in vivo; conditions: 1 mg/kg once a day, 2 days
Experimental: This condition model is typical acute renal failure model. To prepare the model, operated on wistar rat (male, body weight 150 g, 6 weeks aged) to remove right kidney, and on the following day, renal artery of remaining left kidney was applied a ligature with clip under general anesthesia. […] After preparing the ischemia-reperfusion model, test compound (4-(5-phenyltetrazol-1-yl methyl)-morpholine (compound 1), 1 mg/kg body weight, once a day) was suspended in 0.5% carboxymethylcellulose. The suspension was coercively administered 2 days continuously, on third day kidney was obtained, and analysed pathologically (renal tubular stromal disorder score). In particular, the kidney was stained by PAS according to conventional method and the renal tubular stromal disorder was estimated for the presence or absence of renal tubular necrosis, renal tubular hypertrophy, renal tubular atrophia, renal tubular basal lamina thickening and cast in the sustained image of kidney. As well as biochemical analysis of blood was carried out (contract clinical analysis organization: SRL).

[3] = Suppressive effect on the hydroxylation of phenylalanine with hydroxy radical; assay type: biochemical; conditions: in comparison with pyridoxamine as positive control; 0.1, 0.5, 2.5 mM
Experimental: Phenylalanine (final concentration: 1 mM), test compound (final concentration: 0.1, 0.5, 2.5 mM), hydrogen peroxide (final concentration: 5 mM) and cupric sulfate (final concentration: 0.1 mM) were dissolved in 200 mM of phosphate buffer (pH7.4) (total volume 500 μL), followed by incubation at 37° C. for 4 hours. Then, DTPA (final concent-ration: 1 mM) and 260 unit of catalase were added thereto to interrupt the reaction. The amounts of o-tyrosine and m-tyrosine formed were determined by HPLC in the following manner: after a designed period of time, the reaction mixture was diluted to 100 folds; 20 μL of the dilution was injected onto HPLC, separation was made with C18 column (4.6×250 mm, 5 μm; Nomura Kagaku) and detection was effected using a fluorescence detector (RF-10A: Shimazu Seisakusho) under the condition of an excitation wavelength of 275 nm and a fluorescence wavelength of 305 nm. In the mobile phase, the flow rate was 0.6mL/min and the concentration of buffer B was varied from 6.5% to 10% in 25 minutes (buffer A: 0.10% trifluoroacetic acid; buffer B: 80% acetonitrile containing 0.08% trifluoroacetic acid).

ICR mice = assay: Acute toxicity examination, single oral administration to mouse; conditions: in vivo, po
Experimental: (§1) For 4-(5-phenyltetrazol-1-ylmethyl)-morpholine (compound 1) and (5-phenyltetrazol-1-yl) methanol (compound 3), acute toxicity test was carried out using mice. Each compounds were suspended in carboxymethyl cellulose in given concentration to prepare sample for oral administration. Then single oral administration was done to mouse. The dose is 100, 250, 500, 1000 and 2000 mg/kg. Five ICR mice (male , 8 weeks aged, closed colony) were used in each group. The test material was administrated to determine LD50 value.

[4] = as above; conditions: male, in vivo, ICR mice, single oral administration
Experimental: as §1

[5] = tested on: middle cerebral artery ischemia-reperfusion model; assay: Cerebroprotective action in middle cerebral artery ischemia-reperfusion model; assay type: in vivo, rat; conditions: for cerebral infarction nest: dosed 5 minutes and 5 hours after occlusion
Experimental: CD(SD)IGS male rats (Japan Charles River Kabushiki […], Hino farm, room No. 22, specific product) (8 rats per one group) having body weight 270 to 350 g were anesthetized by 2% isoflurane (mixed bas comprising of 70% N2O (laughter gas) and 30% O2) to immobilize, and then the rats were put on warming plate to keep the rectal and brain temperature 37 to 38° C. After that, to observe the stability in the examination, canula which was made by polyethylene (PE-50, Becton Dickinson) was inserted and left in caudal artery of said animal, and this made blood drawing and blood pressure determining to monitor the biochemical parameter such as blood sugar level, hematocrit, CO2 concentration, oxygen partial pressure, pH, blood pressure and etc. In addition, cerebral blood flow in cortex was determined by laser doppler […] (Neuroscience.inc: OMEGA FLOW (FLO-C1)), putting the detection site directly on cranium on the point left 4 mm from bregma. Left neck of such animal was incised, and from internal and external carotid fork of common carotid artery to upstream of internal carotid, nylon surgical thread (length 16 mm, diameter 0.2 to 0.3 mm, with silicon coating on its tip 3 mm) was passed and left, middle cerebral artery was obstructed for 2 hours. After that, the thread was removed to release the middle cerebral artery, and blood was reperfused for 21 hours. To each animals, 3.0 mg/kg of 3-methyl-1-phenyl 2-pyrazolin-5-one (control, hereinafter referring to edaravone) and 4.23 mg/kg of 4-(5-phenyltetrazol-1-ylmethyl)-morpholine (compound 1) (test compound, hereinafter referring to TM-3001) were respectively administered twice by cannula which is left in caudal artery 5 minutes and 5 hours after middle cerebral artery occlusion. After said operation, the brain was removed from said animal, and after preparing 7 brain slices with 2 mm thickness, to TTC stain (0.8 g of 2,3,5-triphenyltetrazolium chloride (Sigma) dissolved in 40 ml of saline) were soaked at 37° C. for 15 minutes to stain, and fixed by 10% neutral formalin liquid to prepare specimen. Such specimens were created the image by CCD camera respectively, and analysed according to method of Swanson et al. (J Cereb Blood Flow Metab 10:290-293; […]). […] Furthermore, function recovering was estimated before and after the operation by rotor rod test that estimates how much they can walk on rotating rotor.

[6] = comparing to diluent single administration

## c1ccc(-c2nnnn2CN2CCOCC2)cc1 [Compound 1, 4-(5-phenyltetrazol-1-ylmethyl)-morpholine]
[1]
  nitrotyrosine formation, suppression: suppressed remarkably
[2]
  BUN: BUN reducing effect
[3]
  hydroxylation of phenylalanine with hydroxy radical, suppression: suppressed remarkably
ICR mice
  toxicity: lower toxicity
[4]
  LD50: > 1000 mg/kg
[5]; after occlusion 10 min
  Nervous condition estimation test, Ave (Bederson grade): 2.4
[5]; after occlusion 2 hrs
  Nervous condition estimation test, Ave (Bederson grade): 2.9
[5]; after reperfusion 10 min
  Nervous condition estimation test, Ave (Bederson grade): 2.6
[5]; after reperfusion 3 hrs
  Nervous condition estimation test, Ave (Bederson grade): 2.4
[5]; after reperfusion 4 hrs
  Nervous condition estimation test, Ave (Bederson grade): 2.5
[5]; before occlusion
  rotor rod test, Ave (count from rotor rod machine): 300.0
[5]; [6]
  improvement for nervous condition: remarkably shown
  recovering the function, rotor rod test: remarkably shown
  cerebral infarction nest: reduction of the cerebral infarction nest
[5]; comparing to diluent single administration, listed as TM-3001
  cerebral infarction nest: significantly reduced
[5]; reperfusion
  rotor rod test, Ave (count from rotor rod machine): 64.8
[5]; reperfusion vs before occlusion
  rotor rod test, ratio to before occlusion (%), Ave: 21.6%
